Tests used:
Hepatotoxicity [1] = system: Hepatotoxicity;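 as to HepSE Combined Scores: combined hepatic side effect score as listed in the training data of the Drug Induced Liver Injury Prediction System (DILIps)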;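 as to HepSE bilirubinemia: bilirubinemia hepatic side effect score drawn from the DILIps training data, a prediction system for drug-induced liver injury; call rule not given here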;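 as to HepSE cholecystitis: Cholecystitis-related hepatic side effect score drawn from the DILIps (drug-induced liver injury prediction) training data set; call rule not given here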;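 as to HepSE elevated liver function tests: hepatic side effect score for raised liver function tests, as recorded in the DILIps training set used for predicting drug-induced liver injury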; as to HepSE hepatic failure: call rule not given here;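 as to HepSE hepatomegaly: hepatic side effect score for hepatomegaly, taken from the training set of the DILIps drug-induced liver injury prediction system; call rule not given here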;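 as to HepSE liver fatty: hepatic side effect score for fatty liver, taken from the DILIps training set for predicting drug-induced liver injury; call rule not given here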
Hepatotoxicity [2] = system: Hepatotoxicity; remark: listed apart in the source;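 as to HepSE Combined Scores: combined hepatic side effect score as listed in the training data of the Drug Induced Liver Injury Prediction System (DILIps)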;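 as to HepSE bilirubinemia: bilirubinemia hepatic side effect score drawn from the DILIps training data, a prediction system for drug-induced liver injury; call rule not given here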;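 as to HepSE elevated liver function tests: hepatic side effect score for raised liver function tests, as recorded in the DILIps training set used for predicting drug-induced liver injury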; as to HepSE hepatic failure: call rule not given here;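 as to HepSE hepatomegaly: hepatic side effect score for hepatomegaly, taken from the training set of the DILIps drug-induced liver injury prediction system; call rule not given here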;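 as to HepSE liver fatty: hepatic side effect score for fatty liver, taken from the DILIps training set for predicting drug-induced liver injury; call rule not given here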
Hepatotoxicity [3] = system: Hepatotoxicity; remark: listed apart in the source;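 as to HepSE Combined Scores: combined hepatic side effect score as listed in the training data of the Drug Induced Liver Injury Prediction System (DILIps)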;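 as to HepSE bilirubinemia: bilirubinemia hepatic side effect score drawn from the DILIps training data, a prediction system for drug-induced liver injury; call rule not given here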;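 as to HepSE elevated liver function tests: hepatic side effect score for raised liver function tests, as recorded in the DILIps training set used for predicting drug-induced liver injury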; as to HepSE hepatic failure: call rule not given here;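 as to HepSE hepatomegaly: hepatic side effect score for hepatomegaly, taken from the training set of the DILIps drug-induced liver injury prediction system; call rule not given here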;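 as to HepSE liver fatty: hepatic side effect score for fatty liver, taken from the DILIps training set for predicting drug-induced liver injury; call rule not given here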
Hepatotoxicity [4] = system: Hepatotoxicity; remark: listed apart in the source;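 as to HepSE Combined Scores: combined hepatic side effect score as listed in the training data of the Drug Induced Liver Injury Prediction System (DILIps)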;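 as to HepSE bilirubinemia: bilirubinemia hepatic side effect score drawn from the DILIps training data, a prediction system for drug-induced liver injury; call rule not given here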;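 as to HepSE elevated liver function tests: hepatic side effect score for raised liver function tests, as recorded in the DILIps training set used for predicting drug-induced liver injury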; as to HepSE hepatic failure: call rule not given here;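 as to HepSE hepatomegaly: hepatic side effect score for hepatomegaly, taken from the training set of the DILIps drug-induced liver injury prediction system; call rule not given here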;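 as to HepSE liver fatty: hepatic side effect score for fatty liver, taken from the DILIps training set for predicting drug-induced liver injury; call rule not given here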
Hepatotoxicity [5] = system: Hepatotoxicity; remark: listed apart in the source; as to HepSE hepatic failure: call rule not given here
Hepatotoxicity [6] = system: Hepatotoxicity; remark: listed apart in the source; as to HepSE hepatic failure: call rule not given here
Hepatotoxicity [7] = system: Hepatotoxicity; remark: listed apart in the source
Hepatotoxicity [8] = system: Hepatotoxicity; remark: listed apart in the source
Hepatotoxicity [9] = system: Hepatotoxicity; remark: listed apart in the source
Hepatotoxicity [10] = system: Hepatotoxicity; remark: listed apart in the source
Hepatotoxicity [11] = system: Hepatotoxicity; remark: listed apart in the source
Hepatotoxicity [12] = system: Hepatotoxicity; remark: listed apart in the source
Hepatotoxicity [13] = system: Hepatotoxicity; remark: listed apart in the source
Hepatotoxicity [14] = system: Hepatotoxicity; remark: listed apart in the source

| Structure (SMILES) | HepSE_Combined Scores (Hepatotoxicity [1]) | HepSE_bilirubinemia (Hepatotoxicity [2]) | HepSE_hepatomegaly (Hepatotoxicity [3]) | HepSE_hepatic failure (Hepatotoxicity [4]) | HepSE_liver fatty (Hepatotoxicity [5]) | HepSE_elevated liver function tests (Hepatotoxicity [6]) | HepSE_hepatitis (Hepatotoxicity [7]) | HepSE_hepatic necrosis (Hepatotoxicity [8]) | HepSE_cholelithiasis (Hepatotoxicity [9]) | HepSE_cholecystitis (Hepatotoxicity [10]) | HepSE_jaundice (Hepatotoxicity [11]) | HepSE_cirrhosis (Hepatotoxicity [12]) | HepSE_liver disease (Hepatotoxicity [13]) | HepSE_liver function tests abnormal (Hepatotoxicity [14]) | other results |
| --- | --- | --- | --- | --- | --- | --- | --- | --- | --- | --- | --- | --- | --- | --- | --- |
| C[C@@H]1C[C@H]2[C@@H]3C[C@H](F)C4=CC(=O)C=C[C@]4(C)[C@@]3(F)[C@@H](O)C[C@]2(C)[C@@]1(O)C(=O)SCF [FLUTICASONE] | 1 | 0 | 0 | 0 | 0 | 0 | 0 | 0 | 0 | 1 | 0 | 0 | 0 | 0 |  |
| CC(C)n1c(/C=C/C(O)CC(O)CC(=O)O)c(-c2ccc(F)cc2)c2ccccc21 (centres undefined) [FLUVASTATIN] |  |  |  |  |  |  |  |  |  |  |  |  |  |  | HepSE_Combined Scores (Hepatotoxicity [1]; Liver): 4; HepSE_bilirubinemia (Hepatotoxicity [2]; Liver): 0; HepSE_hepatomegaly (Hepatotoxicity [3]; Liver): 0; HepSE_hepatic failure (Hepatotoxicity [4]; Liver): 0; HepSE_liver fatty (Hepatotoxicity [5]; Liver): 0; HepSE_elevated liver function tests (Hepatotoxicity [6]; Liver): 0; HepSE_hepatitis (Hepatotoxicity [7]; Liver): 1; HepSE_hepatic necrosis (Hepatotoxicity [8]; Liver): 1; HepSE_cholelithiasis (Hepatotoxicity [9]; Liver): 0; HepSE_cholecystitis (Hepatotoxicity [10]; Liver): 0; HepSE_jaundice (Hepatotoxicity [11]; Liver): 1; HepSE_cirrhosis (Hepatotoxicity [12]; Liver): 1; HepSE_liver disease (Hepatotoxicity [13]; Liver): 0; HepSE_liver function tests abnormal (Hepatotoxicity [14]; Liver): 0 |
| COCCCC/C(=N\OCCN)c1ccc(C(F)(F)F)cc1 [FLUVOXAMINE] | 5 | 0 | 0 | 0 | 0 | 0 | 1 | 0 | 1 | 1 | 1 | 0 | 0 | 1 |  |
| Nc1nc2ncc(CNc3ccc(C(=O)N[C@@H](CCC(=O)O)C(=O)O)cc3)nc2c(=O)[nH]1 [FOLIC ACID] | 0 | 0 | 0 | 0 | 0 | 0 | 0 | 0 | 0 | 0 | 0 | 0 | 0 | 0 |  |
| Cc1cn[nH]c1 [FOMEPIZOLE] | 0 | 0 | 0 | 0 | 0 | 0 | 0 | 0 | 0 | 0 | 0 | 0 | 0 | 0 |  |
| CO[C@H]1O[C@H](COS(=O)(=O)[O-])[C@@H](O[C@@H]2O[C@@H](C(=O)[O-])[C@@H](O[C@H]3O[C@H](COS(=O)(=O)[O-])[C@@H](O[C@@H]4O[C@H](C(=O)[O-])[C@@H](O[C@H]5O[C@H](COS(=O)(=O)[O-])[C@@H](O)[C@H](O)[C@H]5NS(=O)(=O)[O-])[C@H](O)[C@H]4O)[C@H](OS(=O)(=O)[O-])[C@H]3NS(=O)(=O)[O-])[C@H](O)[C@H]2OS(=O)(=O)[O-])[C@H](O)[C@H]1NS(=O)(=O)[O-].[Na+].[Na+].[Na+].[Na+].[Na+].[Na+].[Na+].[Na+].[Na+].[Na+] [FONDAPARINUX SODIUM] | 1 | 0 | 0 | 0 | 0 | 0 | 0 | 0 | 0 | 0 | 0 | 0 | 1 | 0 |  |
| CC(C)CN(C[C@@H](OP(=O)(O)O)[C@H](Cc1ccccc1)NC(=O)O[C@H]1CCOC1)S(=O)(=O)c1ccc(N)cc1 [FOSAMPRENAVIR] | 0 | 0 | 0 | 0 | 0 | 0 | 0 | 0 | 0 | 0 | 0 | 0 | 0 | 0 |  |
| O=C(O)P(=O)(O)O [FOSCARNET] | 0 | 0 | 0 | 0 | 0 | 0 | 0 | 0 | 0 | 0 | 0 | 0 | 0 | 0 |  |
| C[C@@H]1O[C@@H]1P(=O)(O)O [FOSFOMYCIN] | 2 | 0 | 0 | 0 | 0 | 0 | 0 | 1 | 0 | 0 | 1 | 0 | 0 | 0 |  |
| CCC(=O)O[C@@H](O[P@](=O)(CCCCc1ccccc1)CC(=O)N1C[C@H](C2CCCCC2)C[C@H]1C(=O)O)C(C)C [FOSINOPRIL] | 4 | 0 | 1 | 1 | 0 | 0 | 1 | 0 | 0 | 0 | 1 | 0 | 0 | 0 |  |
| O=C1NC(c2ccccc2)(c2ccccc2)C(=O)N1COP(=O)(O)O [FOSPHENYTOIN] | 1 | 0 | 0 | 0 | 0 | 0 | 0 | 0 | 0 | 0 | 0 | 0 | 0 | 1 |  |
| NC[C@@H]1O[C@H](O[C@H]2[C@@H](O)[C@H](O[C@@H]3[C@@H](O)[C@H](N)C[C@H](N)[C@H]3O[C@H]3O[C@H](CN)[C@@H](O)[C@H](O)[C@H]3N)O[C@@H]2CO)[C@H](N)[C@@H](O)[C@@H]1O [FRAMYCETIN] |  |  |  |  |  |  |  |  |  |  |  |  |  |  | HepSE_Combined Scores (Hepatotoxicity [1]; Liver): 0; HepSE_bilirubinemia (Hepatotoxicity [2]; Liver): 0; HepSE_hepatomegaly (Hepatotoxicity [3]; Liver): 0; HepSE_hepatic failure (Hepatotoxicity [4]; Liver): 0; HepSE_liver fatty (Hepatotoxicity [5]; Liver): 0; HepSE_elevated liver function tests (Hepatotoxicity [6]; Liver): 0; HepSE_hepatitis (Hepatotoxicity [7]; Liver): 0; HepSE_hepatic necrosis (Hepatotoxicity [8]; Liver): 0; HepSE_cholelithiasis (Hepatotoxicity [9]; Liver): 0; HepSE_cholecystitis (Hepatotoxicity [10]; Liver): 0; HepSE_jaundice (Hepatotoxicity [11]; Liver): 0; HepSE_cirrhosis (Hepatotoxicity [12]; Liver): 0; HepSE_liver disease (Hepatotoxicity [13]; Liver): 0; HepSE_liver function tests abnormal (Hepatotoxicity [14]; Liver): 0 |
| CN[C@@H]1CCc2[nH]c3ccc(C(N)=O)cc3c2C1 [FROVATRIPTAN] | 0 | 0 | 0 | 0 | 0 | 0 | 0 | 0 | 0 | 0 | 0 | 0 | 0 | 0 |  |
| C[C@]12CC[C@@H]3c4ccc(O)cc4C[C@@H](CCCCCCCCC[S+]([O-])CCCC(F)(F)C(F)(F)F)[C@H]3[C@@H]1CC[C@@H]2O (some centres undefined) [FULVESTRANT] | 0 | 0 | 0 | 0 | 0 | 0 | 0 | 0 | 0 | 0 | 0 | 0 | 0 | 0 |  |
| NCC1(CC(=O)O)CCCCC1 [GABAPENTIN] | 8 | 0 | 1 | 1 | 0 | 1 | 1 | 0 | 1 | 1 | 1 | 0 | 0 | 1 |  |
| O=C[C@H](O)[C@@H](O)[C@@H](O)[C@H](O)CO [GALACTOSE] | 0 | 0 | 0 | 0 | 0 | 0 | 0 | 0 | 0 | 0 | 0 | 0 | 0 | 0 |  |

From ChEMBL document CHEMBL1909294, “Translating clinical findings into knowledge in drug safety evaluation--drug induced liver injury prediction system (DILIps)” (PLoS Comput Biol, 2011)
